Here are results for six compounds from PubChem BioAssay AID1259407 (Chemical Carcinogenesis Research Information System (CCRIS), 2018).

Calls of active or inactive are those of the source. No rule for the calls is given here.

This data set relates to CCRIS mutagenicity, Ames/micronucleus/aberration tests. Nature of the data set: CCRIS mutagenicity studies.
The mark [1] stands for this setting: Test System: AMES SALMONELLA TYPHIMURIUM, Strain/Indicator: TA98, Metabolic Activation: NONE, Method: PREINCUBATION
Setting [2] is: Test System: AMES SALMONELLA TYPHIMURIUM, Strain/Indicator: TA100, Metabolic Activation: NONE, Method: PREINCUBATION
Where [3] appears, read: Test System: AMES SALMONELLA TYPHIMURIUM, Strain/Indicator: TA1535, Metabolic Activation: NONE, Method: PREINCUBATION
Where [4] appears, read: Test System: AMES SALMONELLA TYPHIMURIUM, Strain/Indicator: TA100, Metabolic Activation: NONE, Method: STANDARD PLATE.

For `CCC(C)C(C)CO` (stereo not given), the mutagenic call by setting is: (Test System: AMES SALMONELLA TYPHIMURIUM, Strain/Indicator: TA97, Metabolic Activation: HAMSTER, LIVER, S-9, AROCLOR 1254 (10 OR 30%), Method: PREINCUBATION) “inactive; negative”; (Test System: AMES SALMONELLA TYPHIMURIUM, Strain/Indicator: TA97, Metabolic Activation: NONE, Method: PREINCUBATION) “inactive; negative”; (Test System: AMES SALMONELLA TYPHIMURIUM, Strain/Indicator: TA97, Metabolic Activation: RAT, LIVER, S-9, AROCLOR 1254 (10%), Method: PREINCUBATION) “inactive; negative”; (Test System: AMES SALMONELLA TYPHIMURIUM, Strain/Indicator: TA97, Metabolic Activation: RAT, LIVER, S-9, AROCLOR 1254 (30%), Method: PREINCUBATION) “inactive; negative”; (Test System: AMES SALMONELLA TYPHIMURIUM, Strain/Indicator: TA98, Metabolic Activation: HAMSTER, LIVER, S-9, AROCLOR 1254 (10 OR 30%), Method: PREINCUBATION) “inactive; negative”; under setting [1], “inactive; negative”. Moreover, the mutagenic call (Test System: AMES SALMONELLA TYPHIMURIUM, Strain/Indicator: TA98, Metabolic Activation: RAT, LIVER, S-9, AROCLOR 1254 (10%), Method: PREINCUBATION) was “inactive; negative”; the mutagenic call (Test System: AMES SALMONELLA TYPHIMURIUM, Strain/Indicator: TA98, Metabolic Activation: RAT, LIVER, S-9, AROCLOR 1254 (30%), Method: PREINCUBATION) is “inactive; negative”; the mutagenic call (Test System: AMES SALMONELLA TYPHIMURIUM, Strain/Indicator: TA100, Metabolic Activation: HAMSTER, LIVER, S-9, AROCLOR 1254 (10 OR 30%), Method: PREINCUBATION) was “inactive; negative”; the mutagenic call under setting [2] was “inactive; negative”; the mutagenic call (Test System: AMES SALMONELLA TYPHIMURIUM, Strain/Indicator: TA100, Metabolic Activation: RAT, LIVER, S-9, AROCLOR 1254 (10%), Method: PREINCUBATION) was “inactive; negative”; the mutagenic call (Test System: AMES SALMONELLA TYPHIMURIUM, Strain/Indicator: TA100, Metabolic Activation: RAT, LIVER, S-9, AROCLOR 1254 (30%), Method: PREINCUBATION) was “inactive; negative”. Besides, the mutagenic call by setting is: (Test System: AMES SALMONELLA TYPHIMURIUM, Strain/Indicator: TA1535, Metabolic Activation: HAMSTER, LIVER, S-9, AROCLOR 1254 (10 OR 30%), Method: PREINCUBATION) “inactive; negative”; under setting [3], “inactive; negative”; (Test System: AMES SALMONELLA TYPHIMURIUM, Strain/Indicator: TA1535, Metabolic Activation: RAT, LIVER, S-9, AROCLOR 1254 (10%), Method: PREINCUBATION) “inactive; negative”; (Test System: AMES SALMONELLA TYPHIMURIUM, Strain/Indicator: TA1535, Metabolic Activation: RAT, LIVER, S-9, AROCLOR 1254 (30%), Method: PREINCUBATION) “inactive; negative”.

`COC(=O)C1CSC2C(Cl)=C(Cl)C(=O)N12` (stereo not given): the mutagenic call under setting [4] was “active; positive”.

Regarding `O=C(CCl)Nc1snc2ccc(Cl)cc12`, the mutagenic call (Test System: AMES SALMONELLA TYPHIMURIUM, Strain/Indicator: TA98, Metabolic Activation: NONE, Method: STANDARD PLATE) was “inactive; negative”; the mutagenic call (Test System: AMES SALMONELLA TYPHIMURIUM, Strain/Indicator: TA98, Metabolic Activation: S-9, Method: STANDARD PLATE) is “active; positive”; the mutagenic call under setting [4] was “inactive; negative”; the mutagenic call (Test System: AMES SALMONELLA TYPHIMURIUM, Strain/Indicator: TA100, Metabolic Activation: S-9, Method: STANDARD PLATE) was “active; positive”; the mutagenic call (Test System: AMES SALMONELLA TYPHIMURIUM, Strain/Indicator: TA1535, Metabolic Activation: NONE, Method: STANDARD PLATE) was “inactive; negative”; the mutagenic call (Test System: AMES SALMONELLA TYPHIMURIUM, Strain/Indicator: TA1535, Metabolic Activation: S-9, Method: STANDARD PLATE) was “inactive; negative”. For the same compound, the mutagenic call (Test System: AMES SALMONELLA TYPHIMURIUM, Strain/Indicator: TA1537, Metabolic Activation: NONE, Method: STANDARD PLATE) is “active; positive” and the mutagenic call (Test System: AMES SALMONELLA TYPHIMURIUM, Strain/Indicator: TA1537, Metabolic Activation: S-9, Method: STANDARD PLATE) is “active; positive”.

Take `CC1(C)S[C@@H]2[C@H](NC(=O)COc3ccccc3)C(=O)N2[C@H]1C(=O)O`: the mutagenic call is, setting by setting: (Test System: AMES SALMONELLA TYPHIMURIUM, Strain/Indicator: TA98, Metabolic Activation: HAMSTER, LIVER, S-9, AROCLOR 1254, Method: PREINCUBATION) “inactive; negative”; under setting [1], “inactive; negative”; (Test System: AMES SALMONELLA TYPHIMURIUM, Strain/Indicator: TA98, Metabolic Activation: RAT, LIVER, S-9, AROCLOR 1254, Method: PREINCUBATION) “inactive; negative”; (Test System: AMES SALMONELLA TYPHIMURIUM, Strain/Indicator: TA100, Metabolic Activation: HAMSTER, LIVER, S-9, AROCLOR 1254, Method: PREINCUBATION) “inactive; negative”; under setting [2], “inactive; negative”; (Test System: AMES SALMONELLA TYPHIMURIUM, Strain/Indicator: TA100, Metabolic Activation: RAT, LIVER, S-9, AROCLOR 1254, Method: PREINCUBATION) “inactive; negative”. The mutagenic call by setting is: (Test System: AMES SALMONELLA TYPHIMURIUM, Strain/Indicator: TA1535, Metabolic Activation: HAMSTER, LIVER, S-9, AROCLOR 1254, Method: PREINCUBATION) “inactive; negative”; under setting [3], “inactive; negative”; (Test System: AMES SALMONELLA TYPHIMURIUM, Strain/Indicator: TA1535, Metabolic Activation: RAT, LIVER, S-9, AROCLOR 1254, Method: PREINCUBATION) “inactive; negative”; (Test System: AMES SALMONELLA TYPHIMURIUM, Strain/Indicator: TA1537, Metabolic Activation: HAMSTER, LIVER, S-9, AROCLOR 1254, Method: PREINCUBATION) “inactive; negative”; (Test System: AMES SALMONELLA TYPHIMURIUM, Strain/Indicator: TA1537, Metabolic Activation: NONE, Method: PREINCUBATION) “inactive; negative”; (Test System: AMES SALMONELLA TYPHIMURIUM, Strain/Indicator: TA1537, Metabolic Activation: RAT, LIVER, S-9, AROCLOR 1254, Method: PREINCUBATION) “inactive; negative”. The mutagenic call (Test System: MOUSE LYMPHOMA, Strain/Indicator: L5178Y (TK+/TK-), Metabolic Activation: NONE, Method: SUSPENSION/PLATE) is “inactive; negative” and the mutagenic call (Test System: MOUSE LYMPHOMA, Strain/Indicator: L5178Y (TK+/TK-), Metabolic Activation: RAT, LIVER, S-9, Method: SUSPENSION/PLATE) was “active; positive”.

`COc1cccc2c1C(=O)c1c(O)c3c(c(O)c1C2=O)C[C@@](O)(C(C)=O)C[C@@H]3O[C@@H]1C[C@@H](N(C)C)[C@@H](O)[C@@H](C)O1`: where the note is “Test System: AMES SALMONELLA TYPHIMURIUM, Strain/Indicator: TA102, Metabolic Activation: NONE, Method: STANDARD PLATE”, the mutagenic call was “active; positive”.

Consider `Cc1c2ccccc2cc2c1ccc1ccccc12`, for which the mutagenic call by setting is: (Test System: AMES SALMONELLA TYPHIMURIUM, Strain/Indicator: TA98, Method: STANDARD PLATE) “active; positive”; (Test System: AMES SALMONELLA TYPHIMURIUM, Strain/Indicator: TA100, Metabolic Activation: RAT, INTACT HEPATOCYTES, AROCLOR 1254, Method: PREINCUBATION) “active; positive”; (Test System: AMES SALMONELLA TYPHIMURIUM, Strain/Indicator: TA100, Metabolic Activation: RAT, LIVER, S-9, AROCLOR 1254, Method: STANDARD PLATE) “active; positive”; (Test System: AMES SALMONELLA TYPHIMURIUM, Strain/Indicator: TA100, Metabolic Activation: RAT, LIVER, S-9, PHENOBARBITAL, Method: STANDARD PLATE) “active; positive”; (Test System: AMES SALMONELLA TYPHIMURIUM, Strain/Indicator: TA100, Metabolic Activation: RAT, NADPH-FORTIFIED HOMOGENIZED HEPATOCYTES, AROCLOR 1254, Method: PREINCUBATION) “active; positive”; (Test System: AMES SALMONELLA TYPHIMURIUM, Strain/Indicator: TA100, Metabolic Activation: RAT, SONICATED HEPATOCYTES, AROCLOR 1254, Method: PREINCUBATION) “active; positive”. Further, the mutagenic call is “active; positive” (Test System: AMES SALMONELLA TYPHIMURIUM, Strain/Indicator: TA100, Method: STANDARD PLATE); “active; positive” (Test System: CHINESE HAMSTER V-79, Strain/Indicator: V-79/8-AZAGUANINE, Metabolic Activation: CELL-MEDIATED, Method: STANDARD PLATE); “active; positive” (Test System: CHINESE HAMSTER V-79, Strain/Indicator: V-79/8-AZAGUANINE, Metabolic Activation: NONE, Method: STANDARD PLATE); “active; positive” (Test System: CHINESE HAMSTER V-79, Strain/Indicator: V-79/OUABAIN, Metabolic Activation: CELL-MEDIATED, Method: STANDARD PLATE).
